Reference: article PMC12101129, “An optimized CYP3A4-activatable fluorogenic sensor for in situ functional imaging and multi-dimensional inhibitor assessment” (Chemical Science, 2025)
Like-named read-outs stand apart in the source and are kept apart here. Values belong to the compound of their own block, whether it stands above or below them.

Key:
[1] = Phase II metabolic stability in HLMs; type: in vitro ADME; conditions: human, liver microsomes, read-out: phase II metabolic stability t1/2
[2] = biological target: T1, NCN 4-hydroxylation in HLMs (Homo sapiens, UniProt P08684); assay: Chemical inhibition assays of NCN 4-hydroxylation in HLMs; type: biochemical
T1 construct: tissue Bioreclamation IVT lot No. X008067; host or cells: pooled human liver microsomes from 50 donors

[3] = Effect of pH on fluorescence response of HNCN; type: physicochemical
Hep3B cells [4] = assay: CCK-8 cytotoxicity assay; type: cell-based
[5] = In vivo inhibitory effect of ketoconazole on NCN pharmacokinetics; conditions: rats; for AUC(0-inf) / Cmax / half-life: rat, plasma, po, 20 mg/kg, NCN 20 mg/kg i.g.
Method: Twelve rats were randomly divided into two groups (CMC-Na + NCN group, […]
ketoconazole + NCN group).
50 mg/kg, respectively. Firstly, blank blood samples were collected. Then, ketoconazole or CMC-Na (control group) was administered orally. After 30 min, NCN was administered orally and blood samples were collected at the following time points […]
5-fold volume of acetonitrile.
1.21. Statistical analysis
All data are expressed as the mean ± standard deviation. The Km, Vmax, and IC50 values were determined via non-linear regression analysis using GraphPad Prism software. All statistical analyses were carried out using GraphPad Prism software (GraphPad Prism 8.0), and Origin (2025).

human P-glycoprotein = biological target: T2, human P-glycoprotein (Homo sapiens, UniProt P08183); assay: P-gp transporter assay in MDR1-MDCK cells with or without verapamil; type: in vitro ADME; conditions: for intracellular level in the presence of verapamil: MDR1-MDCK cells, with versus without verapamil
T2 construct: expressed in transfected cells; host or cells: MDR1-MDCK
Method: 1.10. P-gp transporter assay
To test whether NCN is pumped extracellularly by P-gp, MDR1-MDCK cells (a transfected cell line overexpressing human P-glycoprotein) were seeded in 96-well plates supplemented with DMEM media with 10% FBS. Then, verapamil (a potent P-gp inhibitor, 100 μL) was added to 96-well plates and cultured for 15 min. After that, the cells were treated with NCN/Rhodamine 123 (100 μL) for 2 h. The cells were collected and washed with PBS, and lysed by 200 µL ice-cold acetonitrile. Next, the cell supernatant was collected by centrifugation at 20,000 g, 4 °C for 30 min. The content of NCN in the cells was determined. […]

Hep3B cells [6] = assay: Cell-membrane permeability assay in Hep3B cells; type: in vitro ADME; conditions: for Cell-membrane penetration: 20 μM, 1 h
Method: 1.9. Cell-membrane permeability assay
Hep3B cells were cultured with the DMEM media supplemented with 10% fetal bovine serum (FBS) in a humidified culture chamber at 37 °C with 95% air and 5%
CO2. The cells were trypsinized and resuspended with the DMEM basal medium at a […]
200 μL cell suspension was incubated with NCN (20 μM) at 37 °C for 1 h. Then, the cells were centrifuged (1000 rpm, 3 min), resuspended in DMEM media, and centrifuged again. Next, the cells were lysed with ice-cold methanol (200 μL) and centrifuged (20000 g, 30 min, 4 °C). The content of NCN in the supernatant was determined. […]

CYP3A4 [7] = biological target: T3, CYP3A4 (Homo sapiens, UniProt P08684); parameters: endogenous in cells; host or cells: Hep3B; conditions: cited from earlier work; for Km: CYP3A4, previously reported probe
NCM460 cells = assay: Cell-membrane permeability assay in NCM460 cells; type: in vitro ADME
[8] = biological target: T4, human liver microsomes (HLMs) (Homo sapiens, UniProt P08684); assay: Enzyme kinetic analysis of NCN 4-hydroxylation in HLMs; type: biochemical; conditions: Vmax/Km, enzyme source HLMs
T4 construct: tissue Bioreclamation IVT lot No. X008067; host or cells: pooled human liver microsomes from 50 donors
Method: (§1) 1.6. P450 reaction phenotyping and chemical inhibition assays
(§2) P450 reaction phenotyping analysis of NCN was determined using a panel of human recombinant cytochrome P450 enzymes, while the inhibitory effects of CYP specific inhibitors on NCN 4-hydroxylation in HLMs were assessed. The final concentration of each human recombinant CYP enzyme in the incubation system was 5 nM. Briefly, each sample was co-incubated with NCN at 37 °C for 30 min, the formation rate of HNCN was determined to assess the metabolic specificity of NCN.
(§3) Gaussian program conducted a GMMX conformational analysis using a DFT/B3LYP/6-31G(d) pre-optimized 3D geometry. The resulting GMMX conformers were optimized at B3LYP/6-31G(d) level. Moreover, all conformers were real minima, as no imaginary vibrational frequencies were found. The energy ranking was performed to find the minimum energy conformer. The minima conformer was optimized at B3LYP /6-311G(d,p) level. The molecular orbital energy levels and electrostatic potential (ESP) were calculated at the DFT/B3LYP/6-311G(d,p) level.
(§4) Frontier orbital and ESP were depicted by Multiwfn (Lu and Chen 2011) and VMD […]
(§5) 1.8. Enzyme kinetic analysis
(§6) The kinetic parameters of NCN 4-hydroxylation in HLMs were determined by performing a set of hydroxylation kinetic assays. Kinetic parameters (K m and Vmax) for NCN 4-hydroxylation were fitted by the following equation (a): […]

[9] = test system: human recombinant cytochrome P450 enzymes; assay: P450 reaction phenotyping assay; type: biochemical; conditions: NCN, panel of human P450 enzymes including CYP3A5
Method: as §1, §2, §3, §4, §5, §6

[10] = test system: human liver microsomes (HLMs); assay: Oxidative metabolism of candidate substrates in HLMs (fluorescent product formation); conditions: for fluorescence activation following oxidative metabolism: 30 min
[11] = Bio-safety (tolerability) assessment of NCN in healthy mice; type: in vivo
Method: 1.15. Bio-safety assessment of NCN in healthy mice
Sixteen C57BL/6J mice (8 males and 8 females, 6 weeks) were randomly assigned into two groups (4 males and 4 females). All mice were subjected to adaptive feeding for 7 d before the experiment. NCN was dissolved in 0.5% CMC-Na, and mice were orally administered NCN (100 mg/kg)/0.5% CMC-Na continuously for 14 d. The mice were weighed every day, and their status was observed. After 14 d, blood and tissues from all mice were obtained for bio-safety assessment. Serum ALT, AST, TP, UREA, CREA, TG, Na+, and K+ levels were tested by using a fully automated serum biochemistry analysis (Thermo, USA). Mice organs were weighed and the organ index was calculated, and hematoxylin and eosin (H&E) stains were provided by Shanghai Ruibaohe Biotechnology Co., Ltd. […]

[12] = Oral bioavailability of NCN (pharmacokinetics); type: in vivo, SD rats; conditions: Sprague-Dawley, rat, plasma, rats; for AUC(0-inf) / Cmax / Tmax / half-life: n = 5
Method: precipitate the protein. After centrifugation again, the supernatant was determined to
quantify the levels of HNCN.
1.17. Oral bioavailability of NCN
intravenous injection NCN group).
h, and 24 h, respectively.
8 h, 12 h, and 24 h, respectively. […]

CYP3A4 [13] = biological target: T3, CYP3A4; assay: Fluorescence response of NCN to CYP3A4 (NCN 4-hydroxylation); type: biochemical; parameters: purchased Cypex
[14] = test system: human liver microsomes (HLMs)
[15] = KCZ 50 mg kg^−1 versus control, after oral NCN

T3 sequence (P08684 whole entry): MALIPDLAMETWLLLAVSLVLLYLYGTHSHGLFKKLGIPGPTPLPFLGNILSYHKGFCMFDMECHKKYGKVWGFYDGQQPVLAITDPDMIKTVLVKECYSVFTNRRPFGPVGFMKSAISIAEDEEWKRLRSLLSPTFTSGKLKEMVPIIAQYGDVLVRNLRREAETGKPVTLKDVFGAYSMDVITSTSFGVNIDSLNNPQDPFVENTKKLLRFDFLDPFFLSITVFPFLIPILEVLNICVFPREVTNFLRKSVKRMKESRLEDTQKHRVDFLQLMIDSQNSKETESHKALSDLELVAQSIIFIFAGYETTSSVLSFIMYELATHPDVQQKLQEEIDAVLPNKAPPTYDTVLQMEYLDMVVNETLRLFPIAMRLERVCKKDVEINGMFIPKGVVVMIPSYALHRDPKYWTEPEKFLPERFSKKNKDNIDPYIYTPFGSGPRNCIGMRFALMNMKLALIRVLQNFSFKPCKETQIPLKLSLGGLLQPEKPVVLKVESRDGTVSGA
T2 sequence (P08183 whole entry): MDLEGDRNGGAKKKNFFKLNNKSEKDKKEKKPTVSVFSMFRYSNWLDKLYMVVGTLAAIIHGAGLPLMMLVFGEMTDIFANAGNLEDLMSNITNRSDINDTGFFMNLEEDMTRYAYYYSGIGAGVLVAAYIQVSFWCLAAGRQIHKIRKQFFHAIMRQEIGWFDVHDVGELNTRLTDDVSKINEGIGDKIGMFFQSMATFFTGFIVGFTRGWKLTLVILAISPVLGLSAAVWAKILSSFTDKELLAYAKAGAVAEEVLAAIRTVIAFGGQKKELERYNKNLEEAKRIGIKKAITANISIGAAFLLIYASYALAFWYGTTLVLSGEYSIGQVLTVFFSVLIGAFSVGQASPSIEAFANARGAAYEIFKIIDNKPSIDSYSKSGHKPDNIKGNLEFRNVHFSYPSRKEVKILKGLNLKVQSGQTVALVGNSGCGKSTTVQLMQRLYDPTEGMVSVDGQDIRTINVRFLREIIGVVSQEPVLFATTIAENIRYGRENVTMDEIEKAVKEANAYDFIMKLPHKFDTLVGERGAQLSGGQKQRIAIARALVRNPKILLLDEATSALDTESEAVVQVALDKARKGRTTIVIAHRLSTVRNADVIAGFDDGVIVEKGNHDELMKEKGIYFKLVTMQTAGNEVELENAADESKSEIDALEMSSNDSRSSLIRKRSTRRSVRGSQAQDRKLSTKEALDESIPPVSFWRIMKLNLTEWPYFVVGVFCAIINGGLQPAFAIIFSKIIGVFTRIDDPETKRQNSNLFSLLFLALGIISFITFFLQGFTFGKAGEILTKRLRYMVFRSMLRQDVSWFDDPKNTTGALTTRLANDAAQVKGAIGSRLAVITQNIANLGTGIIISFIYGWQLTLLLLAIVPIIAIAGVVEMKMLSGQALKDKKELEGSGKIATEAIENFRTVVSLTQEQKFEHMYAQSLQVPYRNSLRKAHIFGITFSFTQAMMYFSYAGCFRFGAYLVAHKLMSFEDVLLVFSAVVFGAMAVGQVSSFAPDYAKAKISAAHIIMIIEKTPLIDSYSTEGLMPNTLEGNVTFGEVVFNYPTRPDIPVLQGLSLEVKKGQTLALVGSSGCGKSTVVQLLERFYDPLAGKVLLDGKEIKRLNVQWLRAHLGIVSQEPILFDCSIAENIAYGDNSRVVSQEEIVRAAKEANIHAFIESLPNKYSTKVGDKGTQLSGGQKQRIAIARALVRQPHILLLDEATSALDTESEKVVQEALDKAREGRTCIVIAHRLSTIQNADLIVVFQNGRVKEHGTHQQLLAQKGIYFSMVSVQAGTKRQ
T1 sequence (P08684 whole entry): as the sequence (P08684 whole entry) above
T4 sequence (P08684 whole entry): as above

SMILES: O=c1ccc2ccc(O)cc2o1 [7-hydroxycoumarin, reference compound]
half-life [1]: 0.287 h

SMILES: Cc1ccc(-c2c(-c3nn(C)c4ncnc(N5CC[C@H](N6CCCCC6)C5)c34)cnn2C)cc1 [CYP3cide]
inhibition of NCN 4-hydroxylation [2]: completely blocking

SMILES: O=C1c2cccc3cccc(c23)C(=O)N1CC1CC1 [Probe 5, N-cyclopropylmethyl-1,8-naphthalimide]
microsomal CLint [8]: 255 µL/min/mg
isozyme specificity [9]: only CYP3A4 could effectively trigger discernible fluorescence enhancement
fluorescence activation following oxidative metabolism [10]: noticeable fluorescence activation
toxicity, mortality, morbidity signs ([11]; oral 100 mg kg^−1, 14 consecutive days): no toxicity, mortality, or morbidity signs were observed
histopathological examination of vital organs ([11]; oral 100 mg kg^−1, 14 days): no evidence of lesions or inflammation
serum liver, kidney function and other indicators ([11]; oral 100 mg kg^−1, 14 days): within normal ranges
visceral organ appearance ([11]; oral 100 mg kg^−1, 14 days): normal in color, size, and shape
cytotoxicity (Hep3B cells [4]): minimal cytotoxicity
AUC(0-inf) ([5]; control group (CMC-Na)): 1520 ng·h/mL
Cmax ([5]; control group (CMC-Na)): 207 ng/mL
half-life ([5]; control group (CMC-Na)): 1.47 h
AUC(0-inf) ([5]; with KCZ 50 mg kg^−1 i.g.): 5840 ng·h/mL
Cmax ([5]; with KCZ 50 mg kg^−1 i.g.): 674 ng/mL
half-life ([5]; with KCZ 50 mg kg^−1 i.g.): 2.3 h
increase of AUC0-inf by KCZ ([5]; KCZ 50 mg kg^−1 versus control): 3.85 fold
increase of Cmax by KCZ ([5]; KCZ 50 mg kg^−1 versus control): 3.26 fold
AUC(0-inf) ([12]; iv, i.v. 2 mg/kg): 858 ± 120 ng·h/mL
Cmax ([12]; iv, i.v. 2 mg/kg): 1860 ± 477 ng/mL
Tmax ([12]; iv, i.v. 2 mg/kg): 0.083 h
half-life ([12]; iv, i.v. 2 mg/kg): 2.59 ± 0.33 h
bioavailability ([12]; po, 20 mg/kg i.g. versus 2 mg/kg i.v.): 12.9%
AUC(0-inf) ([12]; po, i.g. 20 mg/kg): 1110 ± 208 ng·h/mL
Cmax ([12]; po, i.g. 20 mg/kg): 275 ± 65 ng/mL
Tmax ([12]; po, i.g. 20 mg/kg): 2 ± 0.71 h
half-life ([12]; po, i.g. 20 mg/kg): 1.79 ± 0.41 h
enhancement in cell-membrane permeability compared to NEN (Hep3B cells [6]): 13.7 fold
Cell-membrane penetration (Hep3B cells [6]): 31.45%
intracellular level in the presence of verapamil (human P-glycoprotein): unchanged
P-gp substrate (human P-glycoprotein; listed as NCN): No and non-substrates of P-gp
Detection limit (CYP3A4 [13]; CYP3A4 concentration, NCN as substrate): 0.03 nM
fluorescence enhancement (CYP3A4 [13]; NCN 10 μM with CYP3A4 2 nM and NADPH, 30 min, around 555 nm): 125 fold
metabolites generated [14]: a single oxidative metabolite
Cell-membrane penetration (NCM460 cells): 23.76%
enhancement in cell-membrane permeability compared to NEN (NCM460 cells): 23.9 fold

SMILES: O=C1c2cccc3cccc(c23)C(=O)N1Cc1ccco1 [Probe 15]
metabolites generated [10]: multiple metabolites
fluorescence activation following oxidative metabolism [10]: noticeable fluorescence activation

SMILES: CC(C)c1nc(CN(C)C(=O)N[C@H](C(=O)N[C@@H](Cc2ccccc2)C[C@H](O)[C@H](Cc2ccccc2)NC(=O)OCc2cncs2)C(C)C)cs1 [ritonavir, reference compound]
cytotoxicity (Hep3B cells [4]): minimal cytotoxicity

Further lines, with some results ahead:

inhibition of NCN 4-hydroxylation [2]: completely blocking
SMILES: Nn1nnc2ccccc21 [ABT, 1-aminobenzotriazole]

pH range of stable fluorescence signals [3]: 7.0–11.0
half-life [1]: 1.36 h
AUC(0-inf) ([5]; control group (CMC-Na)): 961 ng·h/mL
Cmax ([5]; control group (CMC-Na)): 101 ng/mL
half-life ([5]; control group (CMC-Na)): 1.77 h
AUC(0-inf) ([5]; with KCZ 50 mg kg^−1 i.g.): 245 ng·h/mL
Cmax ([5]; with KCZ 50 mg kg^−1 i.g.): 32 ng/mL
half-life ([5]; with KCZ 50 mg kg^−1 i.g.): 2.88 h
decrease of Cmax by KCZ [5, 15]: 3.16 fold
reduction of AUC(0-inf) by KCZ [5, 15]: 3.92 fold
P-gp substrate (human P-glycoprotein): non-substrates of P-gp
intracellular level in the presence of verapamil (human P-glycoprotein): unchanged
SMILES: O=C1c2cccc3c(O)ccc(c23)C(=O)N1CC1CC1 [HNCN, N-cyclopropylmethyl-4-hydroxy-1,8-naphthalimide]
cytotoxicity (Hep3B cells [4]): minimal cytotoxicity

Cell-membrane penetration (Hep3B cells [6]): 2.29%
P-gp substrate (human P-glycoprotein): Yes
intracellular level in the presence of verapamil (human P-glycoprotein): significantly enhanced
Cell-membrane penetration (NCM460 cells): 0.99%
SMILES: CCN1C(=O)c2cccc3cccc(c23)C1=O [NEN, N-ethyl-1,8-naphthalimide, reference compound]
Km (CYP3A4 [7]; ref Ning et al. 2019): 59.8 µM
Vmax (CYP3A4 [7]; previously reported probe, ref Ning et al. 2019): 2.18 nmol/min/nmol

metabolites generated [14]: multiple metabolites
SMILES: O=C1c2cccc3cccc(c23)C(=O)N1CC1CCC1 [Probe 6]
fluorescence activation following oxidative metabolism [10]: noticeable fluorescence activation

Cell-membrane penetration (Hep3B cells [6]): 4.82%
P-gp substrate (human P-glycoprotein): Yes
intracellular level in the presence of verapamil (human P-glycoprotein): significantly enhanced
Cell-membrane penetration (NCM460 cells): 2.09%
SMILES: O=C1c2cccc3cccc(c23)C(=O)N1Cc1ccc(F)cc1 [Probe F8, N-(4-fluorobenzyl)-1,8-naphthalimide, reference compound]
Km (CYP3A4 [7]; ref He et al. 2023): 0.36 µM
Detection limit (CYP3A4 [7]; previously reported probe, ref He et al. 2023): 0.1 nM
